Experiment [1] addresses T1, homodimeric receptor PYL3 (Arabidopsis thaliana, UniProt Q9SSM7).
T1 sequence (Q9SSM7 1-209): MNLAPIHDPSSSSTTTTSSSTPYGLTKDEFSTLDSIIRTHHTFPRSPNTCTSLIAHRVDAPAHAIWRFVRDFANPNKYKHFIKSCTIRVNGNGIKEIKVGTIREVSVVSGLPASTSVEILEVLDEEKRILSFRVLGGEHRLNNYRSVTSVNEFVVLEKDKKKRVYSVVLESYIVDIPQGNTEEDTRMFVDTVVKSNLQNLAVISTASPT
The conditions noted are these: read-out: equilibrium dissociation constant (Kd) of homodimeric receptor PYL3, cited from earlier work.

The target in experiment [2] is T2, PYL3-Cy5.5 homodimers (Arabidopsis thaliana, UniProt Q9SSM7).
T2 construct: made in house; host or cells: E. coli BL21[DE3], pET28
T2 sequence (Q9SSM7 1-209): T1 sequence (Q9SSM7 1-209)
Put plainly: Fluorescence of PYL3-Cy5.5 as a function of ABA concentration (self-quenching). It counts as biochemical. How it is done:
(§1) UV-Vis absorption measurements were performed on PYL3-Cy5.5, PYL3-BHQ3, and a 1:1 mixture of PYL3 containing PYL3-Cy5.5 and PYL3-BHQ3 (Shimadzu UV-Vis-NIR spectrophotometer, UV1700). […] Static light scattering (SLS) was used to determine the average molar mass (Malvern Zetasizer Nano S90 fitted with a 633 nm He—Ne laser). The mass of PYL3, PYL3-Cy5.5 and PYL3-BHQ3 was measured using Bruker UltraFlextreme MALDI TOF. Samples for MALDI-TOF measurement were prepared using a dried droplet method in a 2,5-Dihydroxyacetophenone (2,5-DHAP) matrix. The mass spectra were acquired with laser repetition frequency of 0.7-1 kHz.
Fluorescence from PYL3 and BHQ3-PYL3 homodimers in aqueous solution is weak, whereas fluorescence from PYL3-Cy5.5 homodimers (FIG. 2B) was as similarly intense as that of Cy5.5. […] If there is no change to the fluorescence intensity, then no self-quenching occurs. […] This quenching efficiency was used to estimate the quenching efficiency between Cy5.5 and BHQ3 in PYL3 heterodimers.

In experiment [3] the target is T3, PYL3-Cy5.5 and PYL3-BHQ3 dimers (hetero- and homodimers) (Arabidopsis thaliana, UniProt Q9SSM7).
T3 construct: made in house; host or cells: E. coli BL21[DE3], pET28
T3 sequence (Q9SSM7 1-209) 1: T1 sequence (Q9SSM7 1-209)
T3 sequence (Q9SSM7 1-209) 2: T1 sequence (Q9SSM7 1-209)
Put plainly: Static light scattering (SLS) average molar mass of PYL3-Cy5.5 / PYL3-BHQ3 mixture as a function of ABA concentration. Conditions: for PYLs in dimers (hetero- and homodimers, %) / PYLs in monomers (%): calculated using the SLS data. It counts as biochemical. How it is done: as §1

Experiment [4] addresses T4, PYL3-Cy5.5/PYL3-BHQ3 heterodimer mixture (Arabidopsis thaliana, UniProt Q9SSM7).
T4 construct: made in house; host or cells: E. coli BL21[DE3], pET28
T4 sequence (Q9SSM7 1-209) 1: T1 sequence (Q9SSM7 1-209)
T4 sequence (Q9SSM7 1-209) 2: T1 sequence (Q9SSM7 1-209)
Put plainly: Fluorescence of 1:1 PYL3-Cy5.5 / PYL3-BHQ3 mixture as a function of ABA concentration. It counts as biochemical. The conditions noted are these: for Fluorescence from Cy5.5 in monomers / Sum of Cy5.5 fluorescence / Total fluorescence / Fluorescence from Cy5.5 in heterodimers / Fluorescence from Cy5.5 in homodimers: calculated; for Total fluorescence: BHQ3 concentration attenuation factor 0.27; for Fluorescence from Cy5.5 in heterodimers: FRET quenching factor 0.1; for Fluorescence from Cy5.5 in homodimers: self-quenching factor 0.8. Here is the method: This increase should arise from more dissociated PYL3-Cy5.5/PYL3-BHQ3 monomers, which lead to decreased FRET quenching of Cy5.5 by BHQ3 in the heterodimers and decreased self-quenching from Cy5.5 in PYL3-Cy5.5/PYL3-Cy5.5 homodimers as shown in FIG. 2C. Assuming BHQ3 in PYL3-BHQ3 behaves similarly as free BHQ3 in solutions, BHQ3 concentration dependent attenuation (FIG. 3D) is 64%, i.e., fluorescence is decreased to 36% of the signal of pure Cy5.5, at the BHQ3-PYL3 concentration of 4.0 μM used in the measurements. FRET quenching of Cy5.5 by BHQ3 in heterodimers is assumed to be 90%. […] In calculating the final fluorescence intensities (Total fluorescence) in Table 1, we employ the self-quenching, FRET quenching and BHQ3 concentration-dependent attenuation efficiency of 20%, 90% and 73.2%, respectively. The corresponding factors are 0.8, 0.1 and 0.27, respectively. The BHQ3 concentration dependent attenuation efficiency is slightly higher than 64% measured using a mixture of 4 μM of Cy5.5 and 4 μM BHQ3. The calculated final fluorescence intensities are within the standard deviations of the measured values.
For the data presented in Table 1, a self-quenching efficiency of 20% and BHQ3 concentration dependent quenching shown in FIG. 3C are used for calculation together with a calibrated fluorescence intensity of 79,653 cps from 4.65 μM Cy5.5. Units of fluorescence intensity are counts per second (cps). The values are calculated unless specified otherwise.^a Fluorescence intensity=amount of Cy5.5×calibrated unit fluorescence intensity.^b Fluorescence intensity=amount of Cy5.5×self-quenching factor (0.8)×calibrated unit fluorescence intensity.^c Fluorescence intensity=amount of Cy5.5×FRET quenching factor (0.1)×calibrated unit fluorescence intensity.^d Sum of a, b, and c.^e Total fluorescence=BHQ3 concentration attenuation factor (0.27)×d.

In experiment [5] the target is T2, PYL3-Cy5.5 homodimers. Put plainly: Static light scattering (SLS) average molecular mass of PYL3-Cy5.5 as a function of ABA concentration. Format: biochemical. How it is done: as §1
Results from Static Light Scattering (SLS) measurements were used to estimate average molecular mass (FIG. 2D) based on molecular motion in solution, although the method is controversial when the molecular mass is on the order of a few thousand atomic mass units.

Where two headings read alike, the source gives them in different places.

For the compound “PYL3: Arabidopsis abscisic acid receptor PYL3 (SEQ ID NO:4), recombinant, forms homodimers that monomerize upon ABA binding”, the equilibrium dissociation constant (Kd) (commonly the equilibrium constant for the complex coming apart) in experiment [1] (at saturating ABA concentrations) is 52 µM; in experiment [1] (without ABA), 7.76 µM.
In the case of “PYL3-Cy5.5: PYL3 protein monomer chemically conjugated to the fluorescent molecule Cy5.5”, in the experiment with PYL3-Cy5.5 homodimers [2] (absence of ABA, aqueous solution), the “self-quenching in the PYL3-Cy5.5 homodimers” value is “at least 20%”.
As to `CC1=CC(=O)CC(C)(C)[C@@]1(O)/C=C/C(C)=C\C(=O)O` [ABA, abscisic acid], the “average molecule mass (SLS) of PYL3-Cy5.5 / PYL3-BHQ3 mixture” value in experiment [3] (100 nM ABA) is recorded as 50 kDa. In addition, the “Average molar mass (measured, amu)” value in experiment [3] (ABA 0.1 μM) was 51110 amu; in experiment [3] (ABA 1.0 μM) it was 47410 amu; in experiment [3] (ABA 40 μM), 43330 amu; in experiment [3] (ABA 100 μM), 34050 amu; in experiment [3] (ABA 1000 μM) it was 31080 amu. Besides, the “PYLs in dimers (hetero- and homodimers, %)” value in experiment [3] (ABA 0.1 μM) is 98%; in experiment [3] (ABA 1.0 μM) it was 84%; in experiment [3] (ABA 40 μM) it was 68%; in experiment [3] (ABA 100 μM), 32%; in experiment [3] (ABA 1000 μM), 20%. Also, the “PYLs in monomers (%)” value in experiment [3] (ABA 0.1 μM) was 2%; in experiment [3] (ABA 1.0 μM) it was 16%; in experiment [3] (ABA 40 μM), 32%; in experiment [3] (ABA 100 μM) it was 68%; in experiment [3] (ABA 1000 μM), 80%. In addition, the “ABA concentration the current design can detect” value in experiment [4] is 200 nM. The “Fluorescence (measured)” value in experiment [4] (ABA 0.1 μM) turned out to be 3960 cps; in experiment [4] (ABA 1.0 μM) it was 4292 cps; in experiment [4] (ABA 40 μM) it was 5301 cps; in experiment [4] (ABA 100 μM) it was 6711 cps; in experiment [4] (ABA 1000 μM), 9494 cps. The “Fluorescence from Cy5.5 in monomers” value in experiment [4] (ABA 0.1 μM) is 630 cps; in experiment [4] (ABA 1.0 μM), 5040 cps; in experiment [4] (ABA 40 μM), 10080 cps; in experiment [4] (ABA 100 μM), 21420 cps; in experiment [4] (ABA 1000 μM), 25200 cps. Moreover, the “Sum of Cy5.5 fluorescence” value in experiment [4] (ABA 0.1 μM) is recorded as 14553 cps; in experiment [4] (ABA 1.0 μM), 16974 cps; in experiment [4] (ABA 40 μM), 19741 cps; in experiment [4] (ABA 100 μM), 25866 cps; in experiment [4] (ABA 1000 μM), 28035 cps. For the same compound, the Total fluorescence in experiment [4] (ABA 0.1 μM) was 4045 cps; in experiment [4] (ABA 1.0 μM), 4718 cps; in experiment [4] (ABA 40 μM), 5488 cps; in experiment [4] (ABA 100 μM), 7218 cps; in experiment [4] (ABA 1000 μM) it was 7793 cps. Also, the “Fluorescence from Cy5.5 in heterodimers” value is 1575 cps in experiment [4] (ABA 0.1 μM); 1350 cps in experiment [4] (ABA 1.0 μM); 1092 cps in experiment [4] (ABA 40 μM); 514 cps in experiment [4] (ABA 100 μM); 315 cps in experiment [4] (ABA 1000 μM). Further, the “Fluorescence from Cy5.5 in homodimers” value in experiment [4] (ABA 0.1 μM) is given as 12348 cps; in experiment [4] (ABA 1.0 μM) it was 10584 cps; in experiment [4] (ABA 40 μM), 8568 cps; in experiment [4] (ABA 100 μM) it was 4032 cps; in experiment [4] (ABA 1000 μM), 2520 cps. Besides, the “change of fluorescence intensity of the mixture” value in experiment [4] (ABA increased from less than one μM to one mM) is on record as “more than doubled”. The “increase of fluorescence signal of the mixture” value in experiment [4] (upon mixing with 100 μM ABA) was “more than 50%”. The “PYL3-Cy5.5 in the homodimer form” value is given as 94% at PYL3-Cy5.5 homodimers [5] (0.1 μM ABA) and 24% at PYL3-Cy5.5 homodimers [5] (1 mM ABA). For the same compound, the “average molecular mass (SLS)” value turned out to be 50 kDa on PYL3-Cy5.5 homodimers [5] (0.1 μM ABA) and 30 kDa on PYL3-Cy5.5 homodimers [5] (1 mM ABA). The “PYL3-Cy5.5 in the monomeric form” value on PYL3-Cy5.5 homodimers [5] (0.1 μM ABA, 51.6 kDa homodimers, 25.8 kDa monomers chosen) is given as 6%; at PYL3-Cy5.5 homodimers [5] (1 mM ABA), 76%. For the same compound, the “decrease of average molecular mass of the species in solution” value at PYL3-Cy5.5 homodimers [5] (ABA increases from 100 nM to 40 μM) is reported as around 20%. Moreover, the “further decrease of average molecular mass of the species in solution” value on PYL3-Cy5.5 homodimers [5] (ABA increases from 50 to 100 μM) is 20%. Further, the “increase of fluorescence intensity of PYL3-Cy5.5” value on PYL3-Cy5.5 homodimers [2] (ABA increases from 0.1 μM to 1 mM, on average) amounted to 20%.

The values above are taken from US20220211037A1, “BIOSENSORS FOR DROUGHT STRESS IN PLANTS” (The Regents of the University of California, priority 2019, published 2022).
